Molecules are shown by their SMILES.

This test concerns Botrytis cinerea. The test is described as follows: Filter-paper inhibition zone test against Botrytis cinerea. As to conditions: PDA, 28° C., 6 days; for inhibition zone diameter: filter paper 1 cm soaked 4 hours; for inhibitory effect on Botrytis cinerea (in words): filter paper test. It counts as cell-based. As for the experimental part: Test species and reagents: Botrytis cinerea was isolated from the picked blueberries in the laboratory, and chitosan and ascorbic acid were purchased commercially.
Medium and culture conditions: a PDA medium was used, and cultured at 28° C. for 6 days.
Antibacterial effect test: after Botrytis cinerea was activated with the PDA medium, lawn of Botrytis cinerea was picked up and suspended with sterile water to obtain a bacterial suspension. Scraps of filter paper with a diameter of 1 cm were made from a highly absorbent filter paper by using a puncher, and the scraps of filter paper were subjected to dry heat sterilization and soaked in the Galla chinensis extract, a chitosan solution, and an ascorbic acid solution, respectively, and dried for use after 4 hours soaking. The solid PDA medium was melted, poured into a culture dish, cooled and solidified, then 0.1 mL of the bacterial suspension was added and uniformly coated, and then the scraps of filter paper soaked with the above solutions were attached to the bacteria-containing culture dish, and a scrap of filter paper impregnated with sterile water was used as a control. The culture dish treated above was cultured at 28° C. for 6 days, and the diameters of inhibition zones were measured.

`O=C1O[C@H]([C@@H](O)CO)C(O)=C1O` [ascorbic acid]: the inhibition zone diameter worked out at 0.00 mm and the “inhibitory effect on Botrytis cinerea (in words)” value is on record as “no inhibitory effect”.

As for `O=C(O)c1cc(O)c(O)c(O)c1` [gallic acid], the inhibition zone diameter is on record as 0.00 mm and the “inhibitory effect on Botrytis cinerea (in words)” value is “no inhibitory effect”.

The values above are taken from patent US20190357555A1, “BLUEBERRY FRESH-KEEPING AGENT, PREPARATION METHOD AND APPLICATIONS THEREOF” (ZHEJIANG ACADEMY OF AGRICULTURAL SCIENCES, priority 2018, published 2019).
